Laboratory results: patent publication US20130281398A1, “TREATMENT OF DISEASES BY EPIGENETIC REGULATION” (RVX Therapeutics Inc., priority 2012, published 2013)

Biological target: T1, Brd4 bromodomain 1 (Homo sapiens, UniProt O60885)
T1 construct: Illustrative results with the first bromodomain of Brd4; made in house; host or cells: E. coli BL21(DE3)
Experiment: TR-FRET inhibition of tetra-acetylated histone H4 binding to Brd4 bromodomain 1
Settings: tetra-acetylated histone H4 peptide and Brd4 bromodomain 1, 2 hours at room temperature
Experimental: Proteins were cloned and overexpressed with a N-terminal 6×His tag, then purified by nickel affinity followed by size exclusion chromatography. Briefly, E. coli BL21(DE3) cells were transformed with a recombinant expression vector encoding N-terminally Nickel affinity tagged bromodomains from Brd2, Brd3, Brd4. Cell cultures were incubated at 37° C. with shaking to the appropriate density and induced overnight with IPTG. The supernatant of lysed cells was loaded onto Ni-IDA column for purification. Eluted protein was pooled, concentrated and further purified by size exclusion chromatography. Fractions representing monomeric protein are pooled, concentrated, aliquoted, and frozen at −80° C. for use in subsequent experiments.
Binding of tetra-acetylated histone H4 and BET bromodomains was confirmed by a Time Resolved Fluorescence Resonance Energy Transfer (TR-FRET) method. N-terminally His-tagged bromodomains (200 nM) and biotinylated tetra-acetylated histone H4 peptide (25-50 nM, Millipore) were incubated in the presence of Europium Cryptate-labeled streptavidin (Cisbio Cat. #610SAKLB) and XL665-labeled monoclonal anti-His antibody (Cisbio Cat. #61 HISXLB) in a white 96 well microtiter plate (Greiner). For inhibition assays, serially diluted test compound was added to these reactions in a 0.2% final concentration of DMSO. Final buffer concentrations were 30 mM HEPES pH 7.4, 30 mM NaCl, 0.3 mM CHAPS, 20 mM phosphate pH 7.0, 320 mM KF, 0.08% BSA). After 2 hours incubation at room temperature, the fluorescence by FRET was measured at 665 and 620 nm by a SynergyH4 plate reader (Biotek). The binding inhibitory activity was shown by a decrease in 665 nm fluorescence relative to 620 nm. IC50 values were determined from a dose response curve.

Structure (SMILES) | FRET activity (<50 uM)
COc1cc(OC)c2c(=O)[nH]c(-c3cc(C)c(OCCOCc4ccccc4)c(C)c3)nc2n1 [Example 12, 2-(4-(2-(benzyloxy)ethoxy)-3,5-dimethylphenyl)-5,7-dimethoxypyrido[2,3-d]pyrimidin-4(3H)-one] | Inactive
COc1cc(OC)c2c(=O)[nH]c(-c3ccc(OCCNC(C)=O)c(C)c3)nc2c1 [Example 39, N-(2-(4-(5,7-dimethoxy-4-oxo-3,4-dihydroquinazolin-2-yl)-2-methylphenoxy)ethyl)acetamide] | Active
COc1cc(OCCOCc2ccccc2)cc2nc(-c3cc(C)c(OCCO)c(C)c3)[nH]c(=O)c12 [Example 20, 7-(2-benzyloxy-ethoxy)-2-[4-(2-hydroxy-ethoxy)-3,5-dimethyl-phenyl]-5-methoxy-3H-quinazolin-4-one] | Active
COc1cc(OC)c2c(=O)[nH]c(-c3cc(C)c(OCCNc4ccon4)c(C)c3)nc2c1 [Example 48, 2-(4-(2-(isoxazol-3-ylamino)ethoxy)-3,5-dimethylphenyl)-5,7-dimethoxyquinazolin-4(3H)-one] | Active
COc1cc(OC)c2c(=O)[nH]c(-c3cc(C)c(OCCN(C)C(C)=O)c(C)c3)nc2c1 [Example 41, N-(2-(4-(5,7-dimethoxy-4-oxo-3,4-dihydroquinazolin-2-yl)-2,6-dimethylphenoxy)ethyl)-N-methylacetamide] | Active
COc1cc(OC)c2c(=O)[nH]c(-c3ccc(OCCO)c4ccccc34)nc2c1 [Example 18, 2-[4-(2-hydroxy-ethoxy)-naphthalen-1-yl]-5,7-dimethoxy-3H-quinazolin-4-one] | Active
COc1cc(OC)c2c(=O)[nH]c(-c3cc(C)c(OCC(=O)NCc4ccccc4)c(C)c3)nc2c1 [Example 24, N-benzyl-2-[4-(5,7-dimethoxy-4-oxo-3,4-dihydroquinazolin-2-yl)-2,6-dimethylphenoxy]acetamide] | Active
COc1cc(OC)c2c(=O)[nH]c(-c3cc(C)c(OCCNS(=O)(=O)C(C)C)c(C)c3)nc2c1 [Example 37, N-(2-(4-(5,7-dimethoxy-4-oxo-3,4-dihydroquinazolin-2-yl)-2,6-dimethylphenoxy)ethyl)propane-2-sulfonamide] | Active
COc1cc(OC)c2c(=O)[nH]c(-c3cc(C)c(OCCNc4cc(C)on4)c(C)c3)nc2c1 [Example 46, 2-(3,5-dimethyl-4-(2-(5-methylisoxazol-3-ylamino)ethoxy)phenyl)-5,7-dimethoxyquinazolin-4(3H)-one] | Active
COc1cc(OC)c2c(=O)[nH]c(-c3cc(C)c(OCCNS(=O)(=O)N(C)C)c(C)c3)nc2c1 [Example 44, N-(2-(4-(5,7-dimethoxy-4-oxo-3,4-dihydroquinazolin-2-yl)-2,6-dimethylphenoxy)ethyl)dimethylamino-N-sulfonamide] | Active
Cc1cc(-c2nc3cc(Cl)ccc3c(=O)[nH]2)cc(C)c1OCCO [Example 26, 7-chloro-2-(4-(2-hydroxyethoxy)-3,5-dimethylphenyl)quinazolin-4(3H)-one] | Inactive
Cc1cc(-c2nc3ccc(CN4CCN(C)CC4)cc3c(=O)[nH]2)cc(C)c1O [Example 10, 2-(4-hydroxy-3,5-dimethylphenyl)-6-((4-methylpiperazin-1-yl)methyl)quinazolin-4(3H)-one] | Active
COc1cc(OC)c2c(=O)[nH]c(-c3ccc(OCCNc4nnc(-c5ccccc5)[nH]4)c(C)c3)nc2c1 [Example 29, 5,7-Dimethoxy-2-{3-methyl-4-[2-(5-phenyl-4H-[1,2,4]triazol-3-ylamino)-ethoxy]-phenyl}-3H-quinazolin-4-one] | Active
COc1cc(OCCN)cc2nc(-c3cc(C)c(O)c(C)c3)[nH]c(=O)c12 [Example 3, 7-(2-amino-ethoxy)-2-(4-hydroxy-3,5-dimethyl-phenyl)-5-methoxy-3H-quinazolin-4-one] | Active
CNCCOc1c(C)cc(-c2nc3cc(OC)cc(OC)c3c(=O)[nH]2)cc1C [Example 36, 2-(3,5-dimethyl-4-(2-(methylamino)ethoxy)phenyl)-5,7-dimethoxyquinazolin-4(3H)-one] | Active
Cc1cc(C)c2c(=O)[nH]c(-c3cc(C)c(OCCO)c(C)c3)nc2n1 [Example 13, 2-(4-(2-hydroxyethoxy)-3,5-dimethylphenyl)-5,7-dimethylpyrido[2,3-d]pyrimidin-4(3H)-one] | Active
COc1cc(OC)c2c(=O)[nH]c(-c3cc(C)c(OCCNc4nc(C)no4)c(C)c3)nc2c1 [Example 30, 2-{3,5-Dimethyl-4-[2-(3-methyl-[1,2,4]oxadiazol-5-ylamino)-ethoxy]-phenyl}-5,7-dimethoxy-3H-quinazolin-4-one] | Active

Structure (SMILES) | FRET activity (<50 uM)
COc1cc(OC)c2c(=O)[nH]c(-c3ccc(CCCO)c(OC)c3)nc2c1 [Example 51, 2-[4-(3-hydroxy-propyl)-3-methoxy-phenyl]-5,7-dimethoxy-3H-quinazolin-4-one] | Active
COc1cc(OC)c2c(=O)[nH]c(-c3ccc4cc(CCO)[nH]c4c3)nc2c1 [Example 52, 2-[2-(2-hydroxyethyl)-1H-indol-6-yl]-5,7-dimethoxy-3H-quinazolin-4-one] | Active
COc1cc(OC)c2c(=O)[nH]c(-c3cc(C)c(OCCNc4ncccn4)c(C)c3)nc2c1 [Example 47, 2-(3,5-dimethyl-4-(2-(pyrimidin-2-ylamino)ethoxy)phenyl)-5,7-dimethoxyquinazolin-4(3H)-one] | Inactive
COc1cc(OC)c2c(=O)[nH]c(-c3cc(C)c(OCCNC=O)c(C)c3)cc2c1 [Example 35, N-{2-[4-(6,8-dimethoxy-1-oxo-1,2-dihydro-isoquinolin-3-yl)-2,6-dimethyl-phenoxy]-ethyl}-formamide] | Active
Cc1cc(-c2nc3cccc(Cl)c3c(=O)[nH]2)cc(C)c1OCCO [Example 27, 5-chloro-2-(4-(2-hydroxyethoxy)-3,5-dimethylphenyl)quinazolin-4(3H)-one] | Inactive
COc1cc(OC)c2c(=O)[nH]c(-c3ccc(OCCO)cc3)nc2c1 [Example 17, 2-[4-(2-hydroxy-ethoxy)-phenyl]-5,7-dimethoxy-3H-quinazolin-4-one] | Active
COc1ccc2c(=O)[nH]c(-c3cc(C)c(OCCO)c(C)c3)nc2c1 [Example 28, 2-(4-(2-hydroxyethoxy)-3,5-dimethylphenyl)-7-methoxyquinazolin-4(3H)-one] | Inactive
COc1cc(OC)c2c(=O)[nH]c(-c3cc(OC)c(CCCO)c(OC)c3)nc2c1 [Example 50, 2-[4-(3-hydroxy-propyl)-3,5-dimethoxyphenyl]-5,7-dimethoxy-3H-quinazolin-4-one] | Active
CNC(=O)COc1c(C)cc(-c2nc3cc(OC)cc(OC)c3c(=O)[nH]2)cc1C [Example 22, 2-[4-(5,7-dimethoxy-4-oxo-3,4-dihydro-quinazolin-2-yl)-2,6-dimethyl-phenoxy]-N-methyl-acetamide] | Active
COc1cc(OCCOCc2cccnc2)cc2nc(-c3cc(C)c(O)c(C)c3)[nH]c(=O)c12 [Example 6, 2-(4-hydroxy-3,5-dimethylphenyl)-5-methoxy-7-[2-(pyridin-3-ylmethoxy)ethoxy]-3H-quinazolin-4-one] | Active
COc1cc(OC)c2c(=O)[nH]c(-c3ccc4oc(CO)cc4c3)nc2c1 [Example 19, 2-(2-hydroxymethyl-benzofuran-5-yl)-5,7-dimethoxy-3H-quinazolin-4-one] | Inactive
COc1cc(OC)c2c(=O)[nH]c(-c3cc(C)c(OCCNC(C)=O)c(C)c3)nc2n1 [Example 31, N-{2-[4-(5,7-dimethoxy-4-oxo-3,4-dihydro-pyrido[2,3-d]pyrimidin-2-yl)-2,6-dimethyl-phenoxy]-ethyl}-acetamide] | Active
COc1cc(OC)c2c(=O)[nH]c(-c3cc(C)c(OCCNCC(F)(F)F)c(C)c3)nc2c1 [Example 34, 2-{3,5-dimethyl-4-[2-(2,2,2-trifluoro-ethylamino)-ethoxy]-phenyl}-5,7-dimethoxy-3H-quinazolin-4-one] | Inactive
COc1cc(OC)c2c(=O)[nH]c(-c3cc(C)c(OCCN(C)C=O)c(C)c3)nc2c1 [Example 43, N-(2-(4-(5,7-dimethoxy-4-oxo-3,4-dihydroquinazolin-2-yl) 2,6-dimethylphenoxy)ethyl)-N-methylformamide] | Active
Cc1cc(-c2nc3ccc(Nc4ccncc4)cc3c(=O)[nH]2)cc(C)c1O [Example 8, 2-(4-hydroxy-3,5-dimethyl-phenyl)-6-(pyridin-4-ylamino)-3H-quinazolin-4-one] | Active
Cc1cc(-c2nc3cc(OCCN(C)C)ccc3c(=O)[nH]2)cc(C)c1O [Example 7, 7-(2-dimethylamino-ethoxy)-2-(4-hydroxy-3,5-dimethylphenyl)-3H-quinazolin-4-one] | Active
